Patent publication EP4527828A1, “BIPHENYL COMPOUND, PHARMACEUTICAL COMPOSITION, METHOD FOR PREPARING SAME, AND USE THEREOF” (Longivitron (Suzhou) Biotechnology Co., Ltd, priority 2022, dated 2023)
pIC50: −log10 of the molar value. Read-outs that look alike come from different tables or passages of the source.

Legend:
mouse melanoma B16F10 [1] = assay type: in vivo; details: B16F10, Table 6, 100 mg/kg ip once, after 15 days of administration
Description: (§1) (1) 43 8-week-old female C57B/L mice were selected and divided into 5 cages. One preserved B16F10 tumor-bearing female C57L mouse was sacrificed by cervical dislocation. 75% alcohol was sprayed on the skin of the mouse in a laminar flow cabinet, and the tumor tissue of the tumor-bearing mouse was separated by sterilized surgical instruments and cut into a sterilized 5 mL homogenizer with ophthalmic scissors. The tumor tissue was slowly milled on ice to form a tumor fluid. The number of cells was 6.85 × 10^7 cells/mL as counted with a BioRad counting instrument. The tumor fluid was placed in an Erlenmeyer flask in an ice bath for later use. The tumor fluid was evenly aspirated using a 1 mL sterile syringe and inoculated 0.2 mL/C57/L mouse. After the inoculation was completed, the mice continued to be fed under the initial feeding conditions.
(2) Animal grouping and administration: On the second day after tumor fluid inoculation of C57B/L mice, 43 mice were randomly grouped: 10 mice in a control group, 8 mice in a Compound 4-20 mg/kg group, 8 mice in a Compound 4-30 mg/kg group, 8 mice in a Compound 4-40 mg/kg group, and 9 mice in a positive control drug cyclophosphamide CTX-100 mg/kg group. The mice were weighed and administered.
(3) Drug preparation: The corresponding amounts of the drugs were weighed according to the final concentrations of the experimental groups. The drugs of the Compound 4-20 mg/kg group and the Compound 4-30 mg/kg group were prepared with 0.25% CMCNa + Tween 80 and administered orally once a day. The drug of Compound 4-40 mg/kg was prepared with normal saline + Tween 80 and administered intraperitoneally. CTX was prepared with normal saline and administered intraperitoneally once. The mice in the control group were given 0.25% CMCNa solution orally.
(§2) (4) The animals were sacrificed, and the tumors were separated and weighed. The animals in each group were treated immediately 1 h after administration on the last day and weighed, and the tumor tissue was weighed.

mouse melanoma B16F10 [2] = assay type: in vivo; details: B16F10, Table 7, 100 mg/kg intraperitoneally once
Description: as §1, §2
Animal grouping and administration: On the second day after tumor fluid inoculation of C57B/L mice, tumor-bearing mice were randomly grouped: a control group, a Compound 8-5 mg/kg group, a Compound 8-10 mg/kg group, a Compound 8-20 mg/kg group, and a positive control drug cyclophosphamide CTX-100 mg/kg group. The animals were weighed and administered daily. The drugs to be tested were administered orally daily, and the positive control drug CTX was administered intraperitoneally once. After the experiment was completed, the body weights and tumor weights of the animals were weighed, and the tumor weight inhibition rate (%) was calculated.

[3] = tested on: mouse liver cancer HEPA1-6; assay type: in vivo; details: HEPA1-6, 100 mg/kg ip once, after 27 days of administration
Description: (1) 32 8-week-old female C57L mice were selected and divided into 5 cages. HEPA1-6 cells cultured with DMEM + 10% FBS in vitro were washed with PBS and digested with 0.25% trypsin for 3 min. The digestion was terminated with a serum-containing medium, the cells were centrifuged at 2500 rpm for 5 min, the supernatant was discarded, and the cells were resuspended with an appropriate amount of PBS twice. The number of cells was 1.14 × 10^7 cells/mL as counted with a BioRad counting instrument. The cell suspension was placed in an Erlenmeyer flask in an ice bath for later use. The tumor fluid was evenly aspirated using a 1 mL sterile syringe and inoculated 0.2 mL/mouse. After the inoculation was completed, the mice continued to be fed under the initial feeding conditions.
(2) Animal grouping: On the second day after tumor fluid inoculation of C57B/L mice, 32 mice were randomly grouped: 8 mice in a control group, 6 mice in a Compound 4-5 mg/kg group, 6 mice in a Compound 4-10 mg/kg group, 6 mice in a Compound 4-20 mg/kg group, and 6 mice in a positive control drug cyclophosphamide (CTX)-100 mg/kg group. The drug test groups were given the drugs to be tested orally once a day, and the positive control drug CTX was injected intraperitoneally once. The mice were weighed and administered daily.
(3) Drug preparation: The corresponding amounts of the drugs to be tested were weighed according to the final concentrations of the experimental groups. The drugs of the Compound 4-5 mg/kg group, the Compound 4-10 mg/kg group, and the Compound 4-20 mg/kg group were prepared with 5% CMCNa + Tween 80, and CTX was prepared with normal saline. The mice in the control group were given 5% CMCNa solution orally. The dosages were as follows: 0.4 mL/20 g body weight of the animal for intragastric administration, and 0.2 mL/20 g body weight of the animal for intraperitoneal injection.
(4) The animals were sacrificed, and the tumors were separated and weighed. The animals in each group were treated immediately 1 h after administration on the last day and weighed, and the tumor tissue was separated and weighed.

LAG3/MHCII = target: T1, LAG3/MHCII (Homo sapiens, UniProt P18627); test: HTRF binding inhibition of LAG3 and its ligand MHCII; details: binding inhibition LAG3/MHCII
T1 sequence (P18627 23-450 limits assumed): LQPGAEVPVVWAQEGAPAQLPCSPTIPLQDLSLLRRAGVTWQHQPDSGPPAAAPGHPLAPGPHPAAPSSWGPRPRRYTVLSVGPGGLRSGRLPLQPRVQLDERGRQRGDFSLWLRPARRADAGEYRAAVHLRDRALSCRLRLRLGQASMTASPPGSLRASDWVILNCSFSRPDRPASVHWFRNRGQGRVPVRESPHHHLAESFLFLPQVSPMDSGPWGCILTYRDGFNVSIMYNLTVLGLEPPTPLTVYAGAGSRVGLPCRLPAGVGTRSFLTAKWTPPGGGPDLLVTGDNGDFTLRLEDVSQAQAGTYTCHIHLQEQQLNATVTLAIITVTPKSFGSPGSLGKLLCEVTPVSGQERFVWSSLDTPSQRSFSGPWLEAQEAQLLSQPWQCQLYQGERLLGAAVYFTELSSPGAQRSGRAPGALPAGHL
Description: HTRF (Homogeneous time-resolved fluorescence) is based on two techniques, fluorescence resonance energy transfer (FRET) and time-resolved fluorescence (TRF). The detection was carried out using a 384-well plate. 2 µL of a compound to be tested with an appropriate concentration was collected, 4 µL of Tag1-LAG3 protein (with a final concentration of 10 nmol·L^-1) was added, 4 µL of Tag2-MHCII (with a final concentration of 20 nmol·L^-1) was added, and the plate was incubated at room temperature for 15 min. 10 µL of Anti-Tag1-Tb working solution (prepared by adding 25 µL of Anti-Tag1-Tab mother solution to 2475 µL of dilution buffer) was added, 10 µL of Anti-Tag2-XL665 working solution (prepared by adding 25 µL of Tag2-XL665 mother solution to 2475 µL of dilution buffer) was added, and the plate was sealed with a film and incubated at room temperature for 1 h. The detection was carried out using a Perkin Elma Envision instrument.

LAG3/FGL1 = target: T2, LAG3/FGL1 (Homo sapiens, UniProt P18627); test: HTRF binding inhibition of LAG3 and its ligand FGL1; details: binding inhibition LAG3/FGL1; read-out: IC50
T2 sequence (P18627 23-450 limits assumed): T1 sequence (P18627 23-450 limits assumed)
Description: Reagent preparation: ① Tag1-LAG3 protein: a protein solution with a concentration of 50 nM (20 µL with a final system concentration of 10 nM) was prepared using a diluent. ② Tag2-FGL1 protein: a protein solution with a concentration of 100 nM (20 µL with a final system concentration of 20 nM) was prepared using a diluent. ③ Anti-Tag1-Tb: a 100× stock solution was diluted with a detection buffer to a 1 × stock solution. ④ Anti-Tag2-XL665: a 100× stock solution was diluted with a detection buffer to a 1 × stock solution.
Assay step: (1) 2 µL of compound solution (with a concentration to be measured of 10×) was added to a 384-well opaque plate having a white background, 4 µL of Tag1-LAG3 protein and 4 µL of Tag2-FGL1 protein were added, respectively, and the plate was incubated at room temperature for 15 min; (2) Anti-Tag1-Tb and Anti-Tag2-XL665 were mixed at a ratio of 1:1 in advance, and 10 µL of mix solution was added to each well; (3) the plate was gently mixed, sealed, and incubated at room temperature for 1 h or overnight before detection.

| SMILES | Inhibition rate (mouse melanoma B16F10 [1]) [%] | Tumor weight (mouse melanoma B16F10 [1]) [g] | Inhibition rate (mouse melanoma B16F10 [2]) [%] | Tumor weight (mouse melanoma B16F10 [2]) [g] | Inhibition rate [3] [%] | Tumor weight [3] [g] | pIC50 (LAG3/MHCII) | pIC50 (LAG3/FGL1) |
| --- | --- | --- | --- | --- | --- | --- | --- | --- |
| O=P1(N(CCCl)CCCl)NCCCO1 (centres unmarked) [CTX, cyclophosphamide, reference compound] | 61.20 | 1.128 ± 0.394 | 82.93 | 0.30 ± 0.10 | -18.65 | 0.804 ± 0.459 | – | – |
| CCCCCCOc1ccc(C(=O)NCCCCNC(=O)C(F)(F)F)cc1-c1cc(C(=O)NCCCCNC(=O)C(F)(F)F)ccc1OCCCCCC [Compound 13] | – | – | – | – | – | – | 5.40 | 4.34 |
